{
  "source": "patent US7927600B2",
  "about": "“Anti-allergic pharmaceutical composition containing at least one allergen and at least one antihistamine compound” (priority 2001, dated 2011)",
  "system": "allergic patients",
  "assay": "Example 4: adverse effects",
  "type": "in vivo, human",
  "details": "patients of Example 4",
  "data": [
    {"compound": "CCOc1c(N)c2c(c(OCC)c1OCC)C(C1c3c(cc4c(c3OC)OCO4)CCN1C)OC2=O", "note": "(stereo not shown) [Hypostamine, tritoqualine]", "values": [
      {"measurement": "Adverse Effects, Conclusion (frequency)", "value": "Very rare"}
    ]}
  ]
}
